Assay results: publication PMC7307922 (Journal of Medicinal Chemistry, 2020)
Values after ≈ are worked out from the molar mass of the structure shown. Values joined by “and” are separate entries in the source; they are usually repeats but may differ in a detail not shown here. Equal values may be shown once.

Assays:
human FFA2 = biological target: T1, human FFA2 (Homo sapiens, UniProt O15552); assay: FFA2 counterscreen, cAMP assay; format: cell-based; conditions: 10 μM
T1 construct: expressed in transfected cells; host or cells: Flp-In T-REx 293, doxycycline-induced
T1 sequence (O15552 1-330): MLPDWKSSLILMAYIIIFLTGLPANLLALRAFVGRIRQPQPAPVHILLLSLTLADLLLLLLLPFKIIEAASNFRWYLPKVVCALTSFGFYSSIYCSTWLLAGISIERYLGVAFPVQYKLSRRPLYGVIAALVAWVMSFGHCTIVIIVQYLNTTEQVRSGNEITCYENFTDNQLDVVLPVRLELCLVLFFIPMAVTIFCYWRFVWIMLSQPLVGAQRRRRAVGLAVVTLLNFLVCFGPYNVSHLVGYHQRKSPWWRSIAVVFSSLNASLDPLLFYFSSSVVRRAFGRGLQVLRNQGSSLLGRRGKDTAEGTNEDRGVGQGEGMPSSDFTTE
Method: Counter screening against FFA1, FFA2 , FF A4 and GPR84 […]
Counter screening for FFA2 was carried out using a cAMP assay. Flp-In T-Re x 293 cells generated to stably express human FFA2 tagged at is C-terminal with eYFP were first treated with doxycycline (100 ng/mL) overnight to induce receptor expressi on. Cells were then detached and used directly in an HT R-FRET cAMP assay (CisBio) according to the manufacturer’s protocol and measured using a Pherastar FS plate reader (BMG Labtech, Aylesbury, UK). For these experiments, 2000 cells were used per well in a low volume 384-well plate and compounds were tested against their ability to inhibit the cAMP response to 1 µM forskolin for 30 min. […]

[1] = Kinetic aqueous solubility in PBS pH 7.4; format: physicochemical; conditions: for solubility: phosphate buffered saline, pH 7.4, read-out: Aq. solub.
Method: (§1) Solubility and log D7.4 measurements were performed in accordance to the previously published procedures.[35]

human FFA1 = biological target: T2, human FFA1 (Homo sapiens, UniProt O14842); assay: FFA1 counterscreen, arrestin BRET assay; format: cell-based; conditions: 10 μM
T2 construct: expressed in transfected cells; host or cells: HEK293T, transient co-transfection
Method: Counter screening against FFA1, FFA2 , FF A4 and GPR84
Counter screening against FFA1 and FFA4 was carried out using a modified version of a previously described bioluminescence resonance energy transfer (BRET) designed to assess recruitment of b-ar r estin-2 to each receptor.2 Briefly, HEK293T cells were co-transfected with plasmids en coding either human FFA1 or human FFA4 tagged at their C -termini with eYFP and with a plasmid encoding b-ar r estin-2 tagged at its N-terminal with Nanoluciferase. 24 h post transfection cells were seeded into black with clear bottom 96-well plates that had been coated with poly-D-lysine. Cells were then cultured a further 24 h prior to experiments. Cells were then washed twice with Hank’s Balanced salt solution supplemented with 10 mM HEPES (HBSSH) then incubated at 37 °C in HBSSH for 30 min prior to running the assay. The Nluc substrate, coelenterazine h was then added to a f inal concentration of 5 µM and cells were incubated at 37 °C for 10 min prior to adding test agonists. Following a further 5 min incubation, luminescent emission at 475 nm and 535 nm was measured using a Pherastar FS reader (BMG Labtech, Aylesbury, UK) pla te reader set for bottom plate optics. The BRET ratio was then calculated as 535/475 emissions and all BRET ratio values were normalized against the maxima l BRET ratio obtained using reference agonists for the respective receptors (TUG -891 for FFA4, TUG-770 for FFA1). For antagonism studies, the same protocol was used, however the antagonist was added 15 min prior to the addition of an EC 80 concentration of the reference agonist for each receptor. […]

[2] = Stability toward mouse liver microsomes; conditions: remaining after 40 min incubation with MLMs
Method: The study was performed by Bienta (www.bienta.net). Mouse hepatic microsomes were isolated from pooled and perfused livers of male BALB/c mice (n = 50). Isolation was performed according to the standard protocol.[36]
Microsomal incubations were carried out in 96-well plates in 5 aliquots of 40 μL each (one for each time point). Liver microsomal incubation medium comprised PBS (100 mM, pH 7.4), MgCl2 (3.3 mM), NADPH (3 mM), glucose-6-phosphate (5.3 mM), and glucose-6-phosphate dehydrogenase (0.67 units/mL) with 0.42 mg of liver microsomal protein per ml. In the control reactions, the NADPH-cofactor system was substituted with PBS. […] Each reaction was performed in duplicates. Five time points over 40 min were analyzed. The reactions were stopped by adding 12 volumes of 90% acetonitrile–water to incubation aliquots, followed by protein sedimentation by centrifuging at 5500 rpm for 3 min. […]. Supernatants were analyzed using HPLC-MS/MS on an API 3000 PE instrument.

hFFA3 = biological target: T3, hFFA3 (Homo sapiens, UniProt O14843); assay: cell-based; conditions: for Emax: HEK293, read-out: cAMP Emax; for cAMP pEC50 / EC50: hFFA3; for cAMP pEC50: compound alone, mean of ≥3 independent experiments ± standard error; for EC50: read-out: EC50 (cAMP assay)
T3 sequence (O14843 1-346): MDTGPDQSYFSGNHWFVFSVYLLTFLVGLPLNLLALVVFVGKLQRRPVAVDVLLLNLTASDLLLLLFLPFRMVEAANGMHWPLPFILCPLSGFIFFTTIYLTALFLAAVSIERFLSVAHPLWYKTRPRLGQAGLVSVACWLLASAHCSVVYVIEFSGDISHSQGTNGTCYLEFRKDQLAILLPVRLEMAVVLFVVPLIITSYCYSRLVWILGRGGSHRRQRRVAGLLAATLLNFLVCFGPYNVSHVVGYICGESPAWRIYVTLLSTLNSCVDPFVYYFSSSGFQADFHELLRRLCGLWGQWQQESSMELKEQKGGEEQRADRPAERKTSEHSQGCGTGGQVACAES
How it was run: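 HEK293 Flp-In T-REx cells stably carrying FFA3-eYFP, expression induced overnight with doxycycline, 3000 cells/well; compounds co-incubated 1 h to inhibit 0.3 μM forskolin-induced cAMP, read with HTRF cAMP kit.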

log D7.4 measurement = format: physicochemical; conditions: pH 7.4; read-out: logD7.4
Method: as §1

T2 sequence (O14842 whole entry): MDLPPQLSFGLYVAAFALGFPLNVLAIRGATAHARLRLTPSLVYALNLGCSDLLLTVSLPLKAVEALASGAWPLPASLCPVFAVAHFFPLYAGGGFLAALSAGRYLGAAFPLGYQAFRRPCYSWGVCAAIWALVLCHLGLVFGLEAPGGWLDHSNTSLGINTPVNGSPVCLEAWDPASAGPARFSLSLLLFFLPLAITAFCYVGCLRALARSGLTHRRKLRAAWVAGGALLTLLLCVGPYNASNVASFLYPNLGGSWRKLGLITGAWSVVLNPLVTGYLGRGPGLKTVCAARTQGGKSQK

Structure (SMILES)	activity at FFA2 (human FFA2)	solubility [1]	activity at FFA1 (human FFA1)	MLM (%) remaining [2]	Emax (hFFA3)	PAM pEC50 (hFFA3; cAMP assay in the presence of 1 μM propionate)	cAMP pEC50 (hFFA3)	logD (log D7.4 measurement)	allosteric effect on propionate response (hFFA3; cAMP assay together with propionate (56: 30 μM compound; 62, 63: 1 μM propionate))	EC50 (hFFA3)	increase of solubility relative to 16 ([1]; kinetic solubility)	logD at 24 h (log D7.4 measurement)
CC1=C(C(=O)Nc2ccccc2C)C(c2ccco2)C2=C(CCCC2=O)N1 (stereo not drawn) [Compound 1, 4-(Furan-2-yl)-2-methyl-5-oxo-N-(o-tolyl)-1,4,5,6,7,8-hexahydroquinoline-3-carboxamide, reference compound]	No significant activity	190 µM (≈ 68.9 µg/mL)	No significant activity	52%	105%	6.27 ± 0.15	6.28 ± 0.06	2.05	–	–	–	–
CC1=C(C(=O)Nc2cc(Cl)ccc2Cl)C(C2CCCC2)C2=C(CCCC2=O)N1 (stereo not drawn) [Compound 63, 4-Cyclopentyl-N-(2,5-dichlorophenyl)-2-methyl-5-oxo-1,4,5,6,7,8-hexahydroquinoline-3-carboxamide]	No significant activity	9 µM (≈ 3.77 µg/mL)	No significant activity	41%	99%	–	6.79 ± 0.05	> 4.3	did not reveal significant PAM effects	162 nM	–	–
CC1=C(C(=O)Nc2cc(Cl)ccc2Cl)C(c2ccco2)C2=C(CCCC2=O)N1 (stereo not drawn) [Compound 16, reference compound]	No significant activity	5 µM (≈ 2.09 µg/mL)	No significant activity	1−2% and 1%	106%	–	6.89 ± 0.02	3.19	–	–	–	–
CCCC1C(C(=O)Nc2cc(Cl)ccc2Cl)=C(C)NC2=C1C(=O)CCC2 (stereo not drawn) [Compound 57, N-(2,5-Dichlorophenyl)-2-methyl-5-oxo-4-propyl-1,4,5,6,7,8-hexahydroquinoline-3-carboxamide]	No significant activity	33 µM (≈ 13 µg/mL)	No significant activity	1−2% and 1%	113%	–	6.84 ± 0.02	–	–	145 nM	6 fold	4.25
